# Experimental data published in patent US11851445B2, “Compounds and uses thereof” (Foghorn Therapeutics Inc., priority 2020, dated 2023).
# Assays:
# [1] = target: T1, BRD9 (Homo sapiens, UniProt Q9H8M2); assay: BRD9 degradation in SYO-1 cells, western blot dose response; assay type: cell-based; set-up: degradation endogenous BRD9 protein in two synovial sarcoma cell lines; endogenous in cells; host or cells: SYO1 (SYO-1) synovial sarcoma cells; details: for DC50: read-out: Fitted DC50
# T1 sequence (Q9H8M2 1-597): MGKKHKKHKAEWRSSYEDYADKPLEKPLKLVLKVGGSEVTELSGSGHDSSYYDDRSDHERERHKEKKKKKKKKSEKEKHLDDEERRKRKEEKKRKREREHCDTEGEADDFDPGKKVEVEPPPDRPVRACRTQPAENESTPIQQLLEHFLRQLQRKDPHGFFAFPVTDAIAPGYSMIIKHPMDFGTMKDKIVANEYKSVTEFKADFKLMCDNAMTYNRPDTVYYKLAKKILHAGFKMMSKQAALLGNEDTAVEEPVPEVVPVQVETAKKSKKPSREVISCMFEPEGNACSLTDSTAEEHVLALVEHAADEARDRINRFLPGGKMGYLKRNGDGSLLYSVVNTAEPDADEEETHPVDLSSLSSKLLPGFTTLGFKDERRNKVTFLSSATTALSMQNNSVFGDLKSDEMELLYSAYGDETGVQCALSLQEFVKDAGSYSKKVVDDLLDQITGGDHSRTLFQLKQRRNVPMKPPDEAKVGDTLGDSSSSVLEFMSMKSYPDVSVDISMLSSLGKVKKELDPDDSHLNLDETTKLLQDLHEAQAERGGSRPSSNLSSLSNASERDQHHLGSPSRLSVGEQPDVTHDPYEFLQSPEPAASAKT
# Method: (§1) Method. Synoial sarcoma cells were plated in 6-well plate at 500-100 k cells/well and treated with serial concentrations of BRD9 degrader (10 nM top concentration, diluted 1:3) the next day for two time points at 37° C. Cells were then harvested, washed with cold PBS, and frozen in cell pellets at −80° C. Lysates were prepared by resuspending thawed pellets in 1×RIPA Lysis and Extraction buffer (Thermo Fisher, Cat #89900) with 1× Halt™ Protease and Phosphatase Inhibitor Cocktail, EDTA-free (Thermo Fisher, Cat #78441) and 1:1000 dilution Pierce™ Universal Nuclease for Cell Lysis 25ku (Thermo Fisher, Cat #88700). Lysates were incubated on ice for 10 minutes and then centrifuged in 4° C. at maximum speed (15,000 rpm) for 10 minutes. Samples were then analyzed for total protein using BCA protein quantification assay and diluted to 1 μg/μL with lysis buffer and 1× NuPAGE™ LDS Sample Buffer (4×) (Thermo Fisher, Cat #NP0007) and 1×DTT from 30× stock (Cell Signaling Technologies, Cat #14265S). Samples with 20-25 ug of total protein were loaded into 4-12% Bis-Tris Mini-Gel with 1×MES Running buffer and run at 150V for 45 minutes. Gels were transferred using Trans-Blot® Turbo™ Transfer System (semi-dry) at 25V for 10 minutes (High MW setting) on nitrocellulose blots. Blots were blocked in 5% milk in TBST for 1 hour and probed with BRD9 antibody (Bethyl Labs, Cat #A303-781A, 1:750 for SYO1, and Cell Signaling Technologies, Cat #71232S for ASKA) and beta-Actin antibody (Cell Signaling Technologies, Cat #3700, 1:2000) overnight at 4° C. The next day, blots were washed in TBST 3× and probed with 1:5000 IRDye® 680LT Goat anti-Rabbit IgG Secondary Antibody (LiCOR, Cat #926-68021) and 1:10000 IRDye® 800CW Goat anti-Mouse IgG Secondary Antibody (LiCOR, Cat #926-32210) in LiCOR Odyssey® Blocking Buffer (TBS) for 1 hour at room temperature. Blots were washed in TBST 3× and scanned at […] wavelength using LiCOR Odyssey® CLx Imaging System. Western blot signal was quantified using same analyses program included in the same machine. BRD9 signal was quantified by normalizing to beta-actin signal and all samples were normalized to DMSO, set as 100% signal.
# [2] = Interconversion between Enantiomer 1 and Enantiomer 2 in cell medium, chiral LC/MS-MS; assay type: physicochemical; details: 0.2 μM, 37° C.
# Method: For the assessment of interconversion between Enantiomer 1 and Enantiomer 2 in cell medium, the following test was performed. […] At designated time point, aliquot (50 μL) was taken and processed by the addition of 150 μL of acetonitrile containing 0.1% formic acid and internal standard for LC/MS-MS analysis. Peak areas of both Enantiomer 1 and Enantiomer 2 were determined for each sample using a chiral specific analytical method.
# [3] = target: T1, BRD9; assay: Pharmacodynamic BRD9 level in SYO-1 xenograft tumors, western blot (Example 14); assay type: in vivo; set-up: degradation endogenous BRD9 protein in two synovial sarcoma cell lines; endogenous in cells; host or cells: SYO1 (SYO-1) synovial sarcoma cells; details: for pharmacodynamic activity assessed by BRD9 protein level: BALB/c Nude mice, i.v. single dose, FIG. 23; for BRD9 protein degradation in tumor: single dose, tumors up to 72 hours
# [4] = target: T1, BRD9; assay: BRD9 degradation in ASKA cells, western blot dose response; assay type: cell-based; set-up: degradation endogenous BRD9 protein in two synovial sarcoma cell lines; endogenous in cells; host or cells: ASKA synovial sarcoma cells; details: for DC50: read-out: Fitted DC50
# Method: as §1, with “Synoial sarcoma cells were plated in 6-well plate at 500-100 k cells/well and treated with serial concentrations of BRD9 degrader (10 nM top concentration, diluted 1:3) the next day for two time points at 37° C.” left out
# [5] = system: synovial sarcoma cell lines (SYO1, Yamato, HS-SY-II, and ASKA); assay: Growth of synovial sarcoma cell lines (Example 2: confluency, crystal violet, colonies); assay type: cell-based; details: FIGS. 4, 5, 6
# Method: (§2) Cells were treated with DMSO or the BRD9 degrader, Compound 1, at indicated concentrations, and proliferation was monitored from day 7 to day 14 by measuring confluency over time using an IncuCyte live cell analysis system (FIG. 4). Growth medium and compounds were refreshed every 3-4 days.
# (§3) Cells were seeded into 12-well plates and treated with DMSO, 1 μM BRD9 inhibitor, Compound 2 (also known as BI-7273, see Martin et al, J Med Chem. 59(10):4462-4475 (2016); see structure of compound 2 below), or 1 μM BRD9 degrader, Compound 1.
# (§4) The number of cells was optimized for each cell line. Growth medium and compounds were refreshed every 3-5 days. SYO1, Yamato, A549, 293T and HS-SY-II cells were fixed and stained at day 11. ASKA cells were fixed and stained at day 23. Staining was done by incubation with crystal violet solution (0.5 g Crystal Violet, 27 ml 37% Formaldehyde, 100 mL 10×PBS, 10 mL Methanol, 863 dH20 to 1 L) for 30 min followed by 3× washes with water and drying the plates for at least 24 h at room temperature. Subsequently plates were scanned on an Odyssey CLx Imaging system (FIG. 5).
# (§5) Cells were seeded into 96-well ultra-low cluster plate (Costar, #7007) in 200 μL complete media and treated at day 2 with DMSO, Staurosporin, or BRD9 degrader, Compound 1, at indicated doses (FIG. 2C). Media and compounds were changed every 5 d and cell colonies were imaged at day 14.
# [6] = system: non-synovial control cancer cell lines (RD, HCT116, and Calu6); assay: Growth of non-synovial control cancer cell lines, crystal violet, day 14 (Example 3); assay type: cell-based; details: FIG. 8
# Method: (§6) Procedure: Cells were seeded into 6-well or 12-well plates and were treated daily with a BRD9 degrader (Compound 1), a bromo-domain BRD9 binder (Compound 2), E3 ligase binder (lenalidomide), DMSO, or staurosporin (positive control for cell killing), at indicated concentrations. The number of cells was optimized for each cell line. Growth media was refreshed every 5 days. By day 14, medium was removed, cells were washed with PBS, and stained using 500 μL of 0.005% (w/v) crystal violet solution in 25% (v/v) methanol for at least 1 hour at room temperature. Subsequently plates were scanned on an Odyssey CLx Imaging system.
# [7] = system: non-synovial control cancer cell lines (293T, A549, G401); assay: Growth of non-synovial control cancer cell lines (Example 2); assay type: cell-based; details: FIGS. 4, 5, 6
# Method: as §2, §3, §4, §5
# [8] = system: synovial sarcoma cell lines (SYO1, HS-SY-II, and ASKA); assay: Growth of synovial sarcoma cell lines, crystal violet, day 14 (Example 3); assay type: cell-based; details: SYO1, HS-SY-II, ASKA; day 14; FIG. 7
# Method: as §6
compound,measurement,setting,value
"COc1cc(-c2cn(C)c(=O)c3cnc(N4CCC4)cc23)cc(OC)c1CN1CCC(CN2CCC3(CC2)CN(c2ccc4c(c2)C(=O)N(C2CCC(=O)NC2=O)C4)C3)CC1 (single isomer, unassigned; enantiomer 1) [Enantiomer 1]",DC50,"[1]; SYO-1, 1 h",2.8 nM
same,DC50,"[1]; SYO-1, 6 h",0.066 nM
same,Mean peak area ratio of Enantiomer 2 over Enantiomer 1 peak area ratio,"[2]; Enantiomer 1 Dosing, 0 h",0.0
same,Mean peak area ratio of Enantiomer 2 over Enantiomer 1 peak area ratio,"[2]; Enantiomer 1 Dosing, 0.5 h",0.0
same,% Enantiomer 2,"[2]; Enantiomer 1 Dosing, 2 h",12%
same,Mean peak area ratio of Enantiomer 2 over Enantiomer 1 peak area ratio,"[2]; Enantiomer 1 Dosing, 2 h",0.13
same,% Enantiomer 2,"[2]; Enantiomer 1 Dosing, 6 h",30%
same,Mean peak area ratio of Enantiomer 2 over Enantiomer 1 peak area ratio,"[2]; Enantiomer 1 Dosing, 6 h",0.43
same,pharmacodynamic activity assessed by BRD9 protein level,[3],inactive
same,BRD9 protein degradation in tumor,[3],did not degrade BRD9 protein
same,DC50,[4]; 0.5 h,> 10 nM
same,BRD9 degradation activity,"[4]; 30 minutes, up to 10 μM",no discernable activity
same,DC50,[4]; 2 h,0.38 nM
"COc1cc(-c2cn(C)c(=O)c3cnc(N4CCC4)cc23)cc(OC)c1CN1CCC(CN2CCC3(CC2)CN(c2ccc4c(c2)C(=O)N(C2CCC(=O)NC2=O)C4)C3)CC1 (single isomer, unassigned; enantiomer 2) [Enantiomer 2]",difference in DC50 between Enantiomer 1 and Enantiomer 2,"[1]; SYO1, 6 h",ca. 3 fold
same,BRD9 degradation compared with racemic compound D1,"[1]; SYO-1, 1 or 6 hours, FIGS. 16 and 17",slightly better than its racemic parent compound D1
same,DC50,"[1]; SYO-1, 1 h",0.092 nM
same,DC50,"[1]; SYO-1, 6 h",0.023 nM
same,% Enantiomer 2,"[2]; Enantiomer 2 Dosing, 0 h",99%
same,Mean peak area ratio of Enantiomer 1 over Enantiomer 2 peak area ratio,"[2]; Enantiomer 2 Dosing, 0 h",0.01
same,% Enantiomer 2,"[2]; Enantiomer 2 Dosing, 0.5 h",95%
same,Mean peak area ratio of Enantiomer 1 over Enantiomer 2 peak area ratio,"[2]; Enantiomer 2 Dosing, 0.5 h",0.06
same,% Enantiomer 2,"[2]; Enantiomer 2 Dosing, 2 h",82%
same,Mean peak area ratio of Enantiomer 1 over Enantiomer 2 peak area ratio,"[2]; Enantiomer 2 Dosing, 2 h",0.22
same,% Enantiomer 2,"[2]; Enantiomer 2 Dosing, 6 h",63%
same,Mean peak area ratio of Enantiomer 1 over Enantiomer 2 peak area ratio,"[2]; Enantiomer 2 Dosing, 6 h",0.60
same,potency compared with racemic compound D1,[3],equipotent to racemic compound D1
same,pharmacodynamic activity assessed by BRD9 protein level,[3],significant activity
same,BRD9 protein degradation in tumor,[3],degraded BRD9 up to 72 hours after a single dose
same,DC50,[4]; 0.5 h,0.34 nM
same,difference in DC50 between Enantiomer 1 and Enantiomer 2,[4]; 2 h,about 32 fold
same,DC50,[4]; 2 h,0.012 nM
"COc1cc(-c2cn(C)c(=O)c3cnccc23)cc(OC)c1CN(C)C [Compound 2, BI-7273]",growth of the cells,[5],inhibition of the growth of the cells
same,growth of the cells,[6],did not result in inhibition of the growth
same,growth of the cells,[7],does not result in inhibition of the growth
same,growth of the cells,[8],inhibition of the growth of the cells
